Reference: paper PMC3145970, “Specific CLK Inhibitors from a Novel Chemotype for Regulation of Alternative Splicing” (Chemistry & Biology, 2011)
Read-outs that look alike come from different tables or passages of the source.

Experiments:
Test in all cases: Thermal stability shift assay
Format in all cases: binding
CaMK2a = CaMK2a (Homo sapiens, UniProt Q9UQM7); settings: read-out: Tm shift CaMK2a
Method in brief: (§1)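 DSF read-out: SyproOrange fluorescence (1:1000) during thermal unfolding of 2 μM kinase with 10 μM compound. Buffer 10 mM HEPES pH 7.5, 500 mM NaCl; run on a real-time PCR machine.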

Haspin = biological target: T1, Haspin (Homo sapiens, UniProt Q8TF76); settings: read-out: Tm shift Haspin
T1 construct: purchased in-house (SGC Oxford thermal shift panel)
T1 sequence (Q8TF76 1-798): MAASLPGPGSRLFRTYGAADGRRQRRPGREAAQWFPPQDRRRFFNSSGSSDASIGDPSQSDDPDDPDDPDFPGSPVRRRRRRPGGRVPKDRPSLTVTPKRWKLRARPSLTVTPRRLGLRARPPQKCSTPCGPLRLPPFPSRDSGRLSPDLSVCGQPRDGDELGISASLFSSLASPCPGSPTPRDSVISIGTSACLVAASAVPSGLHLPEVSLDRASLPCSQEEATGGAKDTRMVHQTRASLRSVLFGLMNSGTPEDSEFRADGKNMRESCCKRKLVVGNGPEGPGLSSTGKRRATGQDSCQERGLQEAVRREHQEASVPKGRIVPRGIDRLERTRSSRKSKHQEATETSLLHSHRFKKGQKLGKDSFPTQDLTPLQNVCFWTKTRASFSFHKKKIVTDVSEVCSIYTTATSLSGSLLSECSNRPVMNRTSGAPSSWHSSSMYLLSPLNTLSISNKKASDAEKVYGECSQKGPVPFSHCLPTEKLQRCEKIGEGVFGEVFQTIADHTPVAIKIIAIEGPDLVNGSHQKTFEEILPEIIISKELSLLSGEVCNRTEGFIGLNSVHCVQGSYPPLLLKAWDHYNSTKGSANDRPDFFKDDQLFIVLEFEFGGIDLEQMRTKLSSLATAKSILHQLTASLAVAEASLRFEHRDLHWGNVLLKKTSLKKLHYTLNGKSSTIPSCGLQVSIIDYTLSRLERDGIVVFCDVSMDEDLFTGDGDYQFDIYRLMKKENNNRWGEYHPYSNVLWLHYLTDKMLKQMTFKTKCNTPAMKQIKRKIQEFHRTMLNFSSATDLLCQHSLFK
Method in brief: as §1

PIM3 = PIM3 (Homo sapiens, UniProt Q86V86); settings: read-out: Tm shift PIM3
Method in brief: as §1

PLK4 = biological target: T2, PLK4 (Homo sapiens, UniProt O00444); settings: read-out: Tm shift PLK4
T2 sequence (O00444 1-970): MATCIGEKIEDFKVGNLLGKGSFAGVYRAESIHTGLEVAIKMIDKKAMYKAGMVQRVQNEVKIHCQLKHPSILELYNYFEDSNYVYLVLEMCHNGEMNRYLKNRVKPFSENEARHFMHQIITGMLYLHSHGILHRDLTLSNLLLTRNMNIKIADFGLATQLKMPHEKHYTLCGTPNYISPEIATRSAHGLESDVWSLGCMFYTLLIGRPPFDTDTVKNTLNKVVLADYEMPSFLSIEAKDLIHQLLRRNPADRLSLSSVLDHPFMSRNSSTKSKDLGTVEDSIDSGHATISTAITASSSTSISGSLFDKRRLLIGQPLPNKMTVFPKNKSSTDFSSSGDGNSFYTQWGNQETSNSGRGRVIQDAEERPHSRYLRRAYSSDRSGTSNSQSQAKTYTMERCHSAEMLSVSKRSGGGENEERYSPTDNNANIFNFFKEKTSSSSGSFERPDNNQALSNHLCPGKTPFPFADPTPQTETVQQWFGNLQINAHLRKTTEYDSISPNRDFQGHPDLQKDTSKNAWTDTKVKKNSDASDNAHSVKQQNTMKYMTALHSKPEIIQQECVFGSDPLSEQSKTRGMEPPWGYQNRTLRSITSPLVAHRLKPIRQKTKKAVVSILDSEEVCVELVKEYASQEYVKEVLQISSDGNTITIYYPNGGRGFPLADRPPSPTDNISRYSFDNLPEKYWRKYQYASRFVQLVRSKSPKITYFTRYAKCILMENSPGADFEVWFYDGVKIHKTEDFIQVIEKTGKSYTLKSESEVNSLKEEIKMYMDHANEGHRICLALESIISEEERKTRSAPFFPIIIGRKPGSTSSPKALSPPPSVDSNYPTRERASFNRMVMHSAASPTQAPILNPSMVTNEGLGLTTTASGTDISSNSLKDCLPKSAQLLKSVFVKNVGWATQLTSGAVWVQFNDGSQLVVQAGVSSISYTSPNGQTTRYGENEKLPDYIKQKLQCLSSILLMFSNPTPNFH
Method in brief: as §1

RSK2~C = biological target: T3, RSK2~C (Homo sapiens, UniProt P51812); settings: read-out: Tm shift RSK2~C
T3 construct: RSK2~C 2.7 12.3 2.0 1.0 1.3 -0.2 0.4
T3 sequence (P51812 422-679 limits assumed): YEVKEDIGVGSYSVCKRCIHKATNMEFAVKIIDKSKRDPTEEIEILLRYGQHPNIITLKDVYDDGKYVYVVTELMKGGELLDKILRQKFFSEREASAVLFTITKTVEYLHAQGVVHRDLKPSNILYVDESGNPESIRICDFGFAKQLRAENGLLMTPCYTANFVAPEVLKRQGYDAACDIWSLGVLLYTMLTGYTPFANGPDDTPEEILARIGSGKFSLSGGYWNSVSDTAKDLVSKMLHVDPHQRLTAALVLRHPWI
Method in brief: as §1

SRPK2 = SRPK2 (Homo sapiens, UniProt P78362); settings: read-out: Tm shift SRPK2
Sequence of SRPK2 (P78362 whole entry): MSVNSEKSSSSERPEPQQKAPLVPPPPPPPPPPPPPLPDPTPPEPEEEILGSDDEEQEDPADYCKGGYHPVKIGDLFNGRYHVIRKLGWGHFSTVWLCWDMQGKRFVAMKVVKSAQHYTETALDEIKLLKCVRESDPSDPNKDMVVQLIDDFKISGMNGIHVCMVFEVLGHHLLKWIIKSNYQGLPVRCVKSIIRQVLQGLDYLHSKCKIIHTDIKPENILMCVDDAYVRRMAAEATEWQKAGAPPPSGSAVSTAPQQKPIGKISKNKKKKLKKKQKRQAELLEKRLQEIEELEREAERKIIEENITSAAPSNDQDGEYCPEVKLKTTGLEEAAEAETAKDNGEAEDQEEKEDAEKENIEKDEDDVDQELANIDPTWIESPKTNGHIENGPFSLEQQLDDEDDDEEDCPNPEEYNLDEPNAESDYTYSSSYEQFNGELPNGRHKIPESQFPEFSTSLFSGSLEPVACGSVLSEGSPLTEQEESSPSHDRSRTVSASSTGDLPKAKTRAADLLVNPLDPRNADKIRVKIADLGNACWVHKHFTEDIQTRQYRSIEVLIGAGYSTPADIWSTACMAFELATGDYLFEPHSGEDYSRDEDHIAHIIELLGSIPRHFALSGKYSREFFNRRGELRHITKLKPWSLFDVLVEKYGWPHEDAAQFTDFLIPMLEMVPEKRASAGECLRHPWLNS
Method in brief: as §1

p38d = biological target: T4, p38d (Homo sapiens, UniProt O15264); settings: read-out: Tm shift p38d
T4 construct: purchased in-house (SGC Oxford thermal shift panel)
T4 sequence (O15264 1-365): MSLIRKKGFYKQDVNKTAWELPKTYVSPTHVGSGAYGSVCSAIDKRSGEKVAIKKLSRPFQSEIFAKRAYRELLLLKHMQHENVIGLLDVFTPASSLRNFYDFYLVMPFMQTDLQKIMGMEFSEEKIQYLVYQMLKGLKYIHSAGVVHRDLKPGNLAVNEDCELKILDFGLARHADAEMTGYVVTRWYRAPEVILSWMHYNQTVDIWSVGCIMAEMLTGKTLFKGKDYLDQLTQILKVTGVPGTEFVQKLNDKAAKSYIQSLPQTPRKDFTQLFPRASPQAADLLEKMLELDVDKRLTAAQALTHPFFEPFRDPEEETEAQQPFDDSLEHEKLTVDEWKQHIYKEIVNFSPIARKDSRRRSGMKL
Method in brief: as §1

Sequence of CaMK2a (Q9UQM7 whole entry): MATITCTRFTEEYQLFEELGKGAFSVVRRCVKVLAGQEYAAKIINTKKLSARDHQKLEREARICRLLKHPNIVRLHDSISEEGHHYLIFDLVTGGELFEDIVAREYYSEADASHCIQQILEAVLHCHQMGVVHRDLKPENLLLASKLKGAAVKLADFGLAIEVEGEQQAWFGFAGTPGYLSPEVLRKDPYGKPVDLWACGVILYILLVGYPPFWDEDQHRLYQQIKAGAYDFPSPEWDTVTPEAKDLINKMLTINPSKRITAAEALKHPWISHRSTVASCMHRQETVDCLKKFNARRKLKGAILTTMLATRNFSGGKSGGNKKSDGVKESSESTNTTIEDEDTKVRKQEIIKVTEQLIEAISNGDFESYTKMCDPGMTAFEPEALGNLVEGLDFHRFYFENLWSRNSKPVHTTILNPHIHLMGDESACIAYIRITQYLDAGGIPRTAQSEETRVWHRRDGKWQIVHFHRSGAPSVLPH

| ΔTm at 10 µM (CaMK2a; inhibitor 10 μM) [°C] | ΔTm at 10 µM (Haspin; inhibitor 10 μM) [°C] | ΔTm at 10 µM (PIM3; inhibitor 10 μM) [°C] | ΔTm at 10 µM (PLK4; inhibitor 10 μM) [°C] | ΔTm at 10 µM (RSK2~C; inhibitor 10 μM) [°C] | ΔTm at 10 µM (SRPK2; inhibitor 10 μM) [°C] | ΔTm at 10 µM (p38d; inhibitor 10 μM) [°C] | SMILES | ΔTm at 10 µM (CaMK2a) [°C] | ΔTm at 10 µM (Haspin) [°C] | ΔTm at 10 µM (PIM3) [°C] | ΔTm at 10 µM (PLK4) [°C] | ΔTm at 10 µM (RSK2~C) [°C] | ΔTm at 10 µM (SRPK2) [°C] | ΔTm at 10 µM (p38d) [°C] |
| --- | --- | --- | --- | --- | --- | --- | --- | --- | --- | --- | --- | --- | --- | --- |
|  |  |  |  |  |  |  | CCOC(=O)c1c(C(C#N)=CN)c2ccc(Cl)c(Cl)c2n1C (mixture of isomers) [KH-CB20, (E/Z)-Ethyl 3-(2-Amino-1-Cyanovinyl)-6,7-Dichloro-1-Methyl-1H-Indole-2-Carboxylate] | 0.7 | 1.8 | 2.8 | 0.2 | 1 | 0.5 | -0.3 |
| 1 | 0.2 | 3.2 | 0.2 | -0.2 | -0.1 | 0.4 | CCOC(=O)c1c(C(C#N)=CN(C)C)c2ccc(Cl)c(Cl)c2n1C (mixture of isomers) [compound 2, (E/Z)-Ethyl 6,7-Dichloro-3-[1-Cyano-2-(Dimethylamino)Vinyl]-1-Methyl-1H-Indole-2-Carboxylate] |  |  |  |  |  |  |  |
|  |  |  |  |  |  |  | CCOC(=O)c1c(/C(C#N)=C\N)c2ccc(Cl)c(Cl)c2n1C [KH-CB19, (E)-Ethyl 3-(2-Amino-1-Cyanovinyl)-6,7-Dichloro-1-Methyl-1H-Indole-2-Carboxylate] | 0.5 | 2.1 | 3.1 | 0.7 | 2 | 0.1 | 0.3 |
| 0.5 | 2.1 | 4.2 | 0.5 | 1.3 | 0.2 | 0.3 | Cn1c2c(Cl)c(Cl)ccc2c2c(C#N)c[nH]c(=O)c21 [compound 3, 7,8-Dichloro-9-Methyl-1-Oxo-2,9-Dihydro-1H-Pyrido[3,4-b]Indole-4-Carbonitrile] |  |  |  |  |  |  |  |

| SMILES | ΔTm at 10 µM (CaMK2a; inhibitor 10 μM) [°C] | ΔTm at 10 µM (Haspin; inhibitor 10 μM) [°C] | ΔTm at 10 µM (PIM3; inhibitor 10 μM) [°C] | ΔTm at 10 µM (PLK4; inhibitor 10 μM) [°C] | ΔTm at 10 µM (RSK2~C; inhibitor 10 μM) [°C] | ΔTm at 10 µM (SRPK2; inhibitor 10 μM) [°C] | ΔTm at 10 µM (p38d; inhibitor 10 μM) [°C] | ΔTm at 10 µM (CaMK2a) [°C] | ΔTm at 10 µM (Haspin) [°C] | ΔTm at 10 µM (PIM3) [°C] | ΔTm at 10 µM (PLK4) [°C] | ΔTm at 10 µM (RSK2~C) [°C] | ΔTm at 10 µM (SRPK2) [°C] | ΔTm at 10 µM (p38d) [°C] |
| --- | --- | --- | --- | --- | --- | --- | --- | --- | --- | --- | --- | --- | --- | --- |
| NC1=NC(=O)/C(=C2\CCNC(=O)c3[nH]c(Br)cc32)N1 [Hymenialdisine, hymenialdisine, reference compound] | 0.4 | 3.9 | 3.8 | 3 | 2.7 | -0.2 | -0.1 |  |  |  |  |  |  |  |
